The target in experiment [1] is T1, WT-hDAT (Homo sapiens, UniProt Q01959).
T1 construct: expressed in transfected cells; host or cells: HeLa
Put plainly: APP+ transport (uptake) in HeLa cells expressing WT-hDAT. Format: cell-based. The note with it: hDAT; kinetic analysis. The procedure:
(§1) HeLa cells were cultured in Dulbecco’s Modified Eagle’s Medium supplemented with 10% fetal bovine serum, 100 units/ml penicillin, and 100 μg/ml streptomycin at 37°C in a humidified 5% CO2 incubator. Cells were plated in a 6-well culture plate and grown overnight. Cells at ∼70% confluence were transfected with hSERT, hDAT, or hNET cDNA in pcDNA3.1 by lipofectamine 2000. Transfected cells were incubated for 24 h at 37°C with 5% CO2 and then transferred into a 12-well plate placed with polylysine coated slides. After grown for additional 12–16 h, the cells were assayed for APP^+ or ASP^+ fluorescence image acquisition.
(§2) The cells expressing WT or mutants of hSERT, hDAT, or hNET were wet mounted on polylysine coated glass slides in 12-well plates and applied for the indicated treatments. […] The extent of APP^+ accumulated in the cells was determined by confocal imaging analysis. ASP^+ binding to SERT in the cell membrane was measured with digitonin-permeabilized cells ([Li M. et al., 2022a]). […] After removing excess ASP^+ by rapid washing three times, ASP^+ binding was determined by confocal imaging analysis.
(§3) Images were analyzed using Zen Blue software.
(§4) Nonlinear regression fits of experimental and calculated data were performed with Origin (Origin Lab). […]

Experiment [2] addresses T2, WT-hNET (Homo sapiens, UniProt P23975).
T2 construct: expressed in transfected cells; host or cells: HeLa
In words: APP+ transport (uptake) in HeLa cells expressing WT-hNET. The format is cell-based. The note with it: hNET; kinetic analysis. The procedure:
as §1, §2, §3, §4

Experiment [3] deals with T3, WT-hSERT (Homo sapiens, UniProt P31645).
T3 construct: expressed in transfected cells; host or cells: HeLa (ATCC CCL-2), transient, pcDNA3.1
Details: method as in our previous experiments. As to conditions: ref our previous experiments, read-out: Km for APP+ transport; cited from earlier work.

T2 sequence (P23975 whole entry): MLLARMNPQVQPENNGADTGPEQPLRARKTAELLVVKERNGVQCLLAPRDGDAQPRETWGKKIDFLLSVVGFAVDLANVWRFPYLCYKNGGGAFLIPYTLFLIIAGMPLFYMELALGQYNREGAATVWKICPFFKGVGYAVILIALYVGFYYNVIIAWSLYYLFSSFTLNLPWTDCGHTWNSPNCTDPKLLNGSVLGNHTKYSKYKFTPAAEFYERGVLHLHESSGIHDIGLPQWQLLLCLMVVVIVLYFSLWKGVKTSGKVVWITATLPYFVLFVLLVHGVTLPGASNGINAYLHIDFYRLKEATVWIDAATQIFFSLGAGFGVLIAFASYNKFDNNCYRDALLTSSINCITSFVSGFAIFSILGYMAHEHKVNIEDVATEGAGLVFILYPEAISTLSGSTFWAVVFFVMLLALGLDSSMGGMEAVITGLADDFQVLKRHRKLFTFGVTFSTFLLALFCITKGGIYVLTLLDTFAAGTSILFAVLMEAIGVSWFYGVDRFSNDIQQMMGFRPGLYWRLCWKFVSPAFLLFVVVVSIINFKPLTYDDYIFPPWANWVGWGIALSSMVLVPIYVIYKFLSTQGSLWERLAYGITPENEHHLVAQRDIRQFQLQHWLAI
T1 sequence (Q01959 whole entry): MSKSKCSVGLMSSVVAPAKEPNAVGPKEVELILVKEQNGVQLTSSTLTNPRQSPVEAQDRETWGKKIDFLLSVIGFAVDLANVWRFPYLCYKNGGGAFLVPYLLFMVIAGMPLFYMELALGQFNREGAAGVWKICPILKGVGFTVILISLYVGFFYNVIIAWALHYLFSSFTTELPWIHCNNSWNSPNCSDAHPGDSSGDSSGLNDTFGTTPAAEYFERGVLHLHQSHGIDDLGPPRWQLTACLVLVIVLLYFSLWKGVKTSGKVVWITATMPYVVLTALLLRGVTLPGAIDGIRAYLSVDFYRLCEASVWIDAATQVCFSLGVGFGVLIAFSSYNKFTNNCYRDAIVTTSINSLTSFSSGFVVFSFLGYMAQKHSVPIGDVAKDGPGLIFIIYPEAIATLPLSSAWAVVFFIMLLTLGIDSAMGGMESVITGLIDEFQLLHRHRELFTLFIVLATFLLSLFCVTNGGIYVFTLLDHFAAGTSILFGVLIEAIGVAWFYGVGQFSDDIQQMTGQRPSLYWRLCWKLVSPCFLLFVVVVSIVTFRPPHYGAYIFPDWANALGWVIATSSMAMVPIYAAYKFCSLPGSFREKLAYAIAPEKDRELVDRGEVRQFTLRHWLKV
T3 sequence (P31645 whole entry): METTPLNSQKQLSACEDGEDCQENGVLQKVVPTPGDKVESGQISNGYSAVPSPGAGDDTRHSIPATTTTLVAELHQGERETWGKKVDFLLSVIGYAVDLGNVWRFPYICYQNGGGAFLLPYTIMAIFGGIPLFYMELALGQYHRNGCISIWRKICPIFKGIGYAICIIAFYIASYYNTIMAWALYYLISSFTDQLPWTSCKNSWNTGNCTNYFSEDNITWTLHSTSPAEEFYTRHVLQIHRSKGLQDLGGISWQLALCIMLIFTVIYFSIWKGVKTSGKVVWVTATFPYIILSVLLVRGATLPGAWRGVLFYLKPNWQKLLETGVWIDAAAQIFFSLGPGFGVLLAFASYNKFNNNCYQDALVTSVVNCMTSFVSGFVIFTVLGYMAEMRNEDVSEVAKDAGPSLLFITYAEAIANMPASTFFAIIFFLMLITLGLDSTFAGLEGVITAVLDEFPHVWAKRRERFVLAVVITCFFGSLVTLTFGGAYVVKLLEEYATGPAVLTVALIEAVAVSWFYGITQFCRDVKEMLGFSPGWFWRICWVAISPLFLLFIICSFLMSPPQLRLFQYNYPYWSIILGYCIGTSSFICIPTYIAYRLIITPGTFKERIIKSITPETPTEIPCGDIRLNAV

For the substance “4-[4-(Dimethylamino)phenyl]-1-methylpyridinium [APP^+, reference compound]”, the Km in experiment [1] was 2.89 ± 0.48 µM; in experiment [2] it was 1.56 ± 0.22 µM; in experiment [3], 2.63 ± 0.16 µM.

The Km is the concentration of substrate that gives half-maximal velocity.

Source of the values: article PMC9649612, “Molecular docking and biochemical validation of (-)-syringaresinol-4-O-β-D-apiofuranosyl-(1→2)-β-D-glucopyranoside binding to an allosteric site in monoamine transporters” (Frontiers in Pharmacology, 2022).
